Experimental data reported in US11912693B2, “Compounds for modulating S1P1 activity and methods of using the same” (TREVENA, INC., priority 2017, dated 2024).

Tests used:
[1] = biological target: T1, human sphingosine-1-phosphate receptor 1 (S1P1) (Homo sapiens (Human), UniProt P21453); experiment: Inhibition of cAMP production (HTRF cAMP HiRange), S1P1 CHO-K1 cells; assay type: cell-based; conditions: for Emax: CHO-K1, efficacy (SPAN) normalized to fingolimod, read-out: hS1P1 cAMP SPAN; for hS1P1 cAMP pEC50: inhibition of cAMP production, S1P1 CHO-K1 cells
In short: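 CHO-K1 cells stably co-expressing human S1P1 (C-terminal Prolink tag) and EA-β-arrestin2 were grown in AssayComplete Media 6 at 37° C. and 5% CO2, plated, and incubated overnight. Agonist-driven inhibition of intracellular cAMP was read by TR-FRET with the HTRF cAMP HiRange kit on a PheraStar reader. Potency is pEC50, and efficacy (SPAN) is normalized to fingolimod.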
Target sequence in this assay (P21453 whole entry, looked up): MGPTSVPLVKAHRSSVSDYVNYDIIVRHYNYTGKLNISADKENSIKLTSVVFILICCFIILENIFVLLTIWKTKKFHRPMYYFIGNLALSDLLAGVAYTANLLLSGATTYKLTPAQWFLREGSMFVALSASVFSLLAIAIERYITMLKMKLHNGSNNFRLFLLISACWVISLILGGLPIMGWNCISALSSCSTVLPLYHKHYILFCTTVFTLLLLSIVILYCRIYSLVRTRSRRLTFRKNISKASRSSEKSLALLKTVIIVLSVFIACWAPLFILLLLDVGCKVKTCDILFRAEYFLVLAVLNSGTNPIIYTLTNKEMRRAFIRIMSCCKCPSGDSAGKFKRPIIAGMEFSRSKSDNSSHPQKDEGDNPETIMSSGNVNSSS

[2] = biological target: T1, human sphingosine-1-phosphate receptor 1 (S1P1); experiment: β-Arrestin2 recruitment assay (PathHunter), S1P1 CHO-K1 cells; assay type: cell-based; conditions: for Emax: CHO-K1, efficacy (SPAN) normalized to fingolimod, read-out: hS1P1 B-arrestin2 SPAN; for hS1P1 B-arrestin2 pEC50: β-arrestin2 recruitment, S1P1 CHO-K1 cells
In short: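 Enzyme-fragment complementation read-out: agonist-driven β-arrestin2 binding to ProLink-tagged human S1P1 in stable CHO-K1 cells restores β-galactosidase, measured 1 h at room temperature after a 60 min 37° C. compound incubation. Potency as pEC50, efficacy relative to fingolimod (SPAN).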
Target sequence in this assay (P21453 whole entry, looked up): as above
Target sequence in this assay (P32121 whole entry partner, looked up): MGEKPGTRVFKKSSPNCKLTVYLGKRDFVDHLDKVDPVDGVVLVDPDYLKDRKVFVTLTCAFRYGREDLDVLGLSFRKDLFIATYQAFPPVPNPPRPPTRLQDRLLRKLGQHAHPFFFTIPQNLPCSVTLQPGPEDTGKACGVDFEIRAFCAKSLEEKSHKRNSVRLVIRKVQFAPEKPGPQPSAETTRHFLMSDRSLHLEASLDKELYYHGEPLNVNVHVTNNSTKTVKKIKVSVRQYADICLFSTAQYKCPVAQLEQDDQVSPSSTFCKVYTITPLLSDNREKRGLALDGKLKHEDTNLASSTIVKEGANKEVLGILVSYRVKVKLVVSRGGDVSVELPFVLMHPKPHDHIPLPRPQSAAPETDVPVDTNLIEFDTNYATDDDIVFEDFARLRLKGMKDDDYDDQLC

Emax [1] [%] | hS1P1 cAMP pEC50 [1] | Emax [2] [%] | hS1P1 B-arrestin2 pEC50 [2] | SMILES
< 75 | <6.5 | < 75 | <5 | Brc1ccccc1-c1nc(-c2ccc3c(c2)nnn3Cc2cccnc2)no1 [Compound 283, 5-(2-bromophenyl)-3-(1-(pyridin-3-ylmethyl)-1H-benzo[d][1,2,3]triazol-5-yl)-1,2,4-oxadiazole]
< 75 | <6.5 | < 75 | <5 | c1ccc(Oc2ccc(-c3noc(-c4ccc5c(c4)nnn5C4CC4)n3)cc2)cc1 [Compound 285, 1-cyclopropyl-5-[3-(4-phenoxyphenyl)-1,2,4-oxadiazol-5-yl]-1H-1,2,3-benzotriazole]
> 75 | >6.5 | > 75 | >5 | COc1ccccc1-c1noc(-c2ccc3c(c2)nnn3C(C)C)n1 [Compound 286, 5-(1-isopropyl-1H-benzo[d][1,2,3]triazol-5-yl)-3-(2-methoxyphenyl)-1,2,4-oxadiazole]
< 75 | <6.5 | < 75 | <5 | Cc1ccccc1-c1noc(-c2ccc3c(c2)nnn3CC2CC2)n1 [Compound 288, 1-(cyclopropylmethyl)-5-[3-(2-methylphenyl)-1,2,4-oxadiazol-5-yl]-1H-1,2,3-benzotriazole]
– | <6.5 | – | <5 | CC(C)Cn1nnc2cc(-c3nc(-c4ccccc4Cl)no3)ccc21 [Compound 289, 5-[3-(2-chlorophenyl)-1,2,4-oxadiazol-5-yl]-1-(2-methylpropyl)-1H-1,2,3-benzotriazole]
< 75 | <6.5 | < 75 | <5 | CC(C)n1nnc2cc(-c3noc(-c4ccc(C5CCCCC5)cc4)n3)ccc21 [Compound 290, 5-(4-cyclohexylphenyl)-3-(1-isopropyl-1H-benzo[d][1,2,3]triazol-5-yl)-1,2,4-oxadiazole]
< 75 | <6.5 | < 75 | <5 | c1ccc(-c2noc(-c3ccc4c(c3)nnn4C3CCCCC3)n2)cc1 [Compound 292, 1-cyclohexyl-5-(3-phenyl-1,2,4-oxadiazol-5-yl)-1H-1,2,3-benzotriazole]
< 75 | <6.5 | > 75 | <5 | CC(C)n1nnc2cc(-c3nc(-c4ccccc4)co3)ccc21 [Compound 294, 5-(4-phenyl-1,3-oxazol-2-yl)-1-(propan-2-yl)-1H-1,2,3-benzotriazole]
> 75 | <6.5 | < 75 | <5 | c1cc(-c2noc(-c3ccc4c(c3)nnn4C3CC3)n2)ccn1 [Compound 295, 1-cyclopropyl-5-[3-(pyridin-4-yl)-1,2,4-oxadiazol-5-yl]-1H-1,2,3-benzotriazole]
< 75 | <6.5 | < 75 | <5 | CC(C)n1nnc2cc(-c3nc(-c4ccc(OCc5ccccc5)c(C(F)(F)F)c4)no3)ccc21 [Compound 296, 5-{3-[4-(benzyloxy)-3-(trifluoromethyl)phenyl]-1,2,4-oxadiazol-5-yl}-1-(propan-2-yl)-1H-1,2,3-benzotriazole]
> 75 | <6.5 | > 75 | <5 | CC(C)n1nnc2cc(-c3nc4c(o3)-c3ccccc3CC4)ccc21 [Compound 297, 5-{4H,5H-naphtho[2,1-d][1,3]oxazol-2-yl}-1-(propan-2-yl)-1H-1,2,3-benzotriazole]
< 75 | <6.5 | > 75 | <5 | COc1cccc(-c2nc(-c3ccc4c(c3)nnn4C(C)C)no2)c1 [Compound 299, 3-(1-isopropylbenzotriazol-5-yl)-5-(3-methoxyphenyl)-1,2,4-oxadiazole]
> 75 | >6.5 | > 75 | >5 | CC(C)n1nnc2cc(-c3noc(-c4ccccc4F)n3)ccc21 [Compound 307, 5-(2-fluorophenyl)-3-(1-isopropyl-1H-benzo[d][1,2,3]triazol-5-yl)-1,2,4-oxadiazole]
< 75 | <6.5 | < 75 | <5 | Cc1ccccc1-c1noc(-c2ccc3nnn(C(C)C)c3c2)n1 [Compound 308, 6-[3-(2-methylphenyl)-1,2,4-oxadiazol-5-yl]-1-(propan-2-yl)-1H-1,2,3-benzotriazole]

Continued, compound first:

SMILES | Emax [1] [%] | hS1P1 cAMP pEC50 [1] | Emax [2] [%] | hS1P1 B-arrestin2 pEC50 [2]
COc1ccc(-c2noc(-c3ccc4c(c3)nnn4C3CCCCC3)n2)cc1C(F)(F)F [Compound 284, 1-cyclohexyl-5-{3-[4-methoxy-3-(trifluoromethyl)phenyl]-1,2,4-oxadiazol-5-yl}-1H-1,2,3-benzotriazole] | < 75 | <6.5 | < 75 | <5
CC1(C)CC(=O)c2cc(-c3nc(-c4ccncc4)no3)ccc2O1 [Compound 291, 2,2-dimethyl-6-[3-(pyridin-4-yl)-1,2,4-oxadiazol-5-yl]-3,4-dihydro-2H-1-benzopyran-4-one] | < 75 | <6.5 | < 75 | <5
O=C1CC2(CCCC2)Oc2ccc(-c3nc(-c4cccnc4)no3)cc21 [Compound 298, 6-[3-(pyridin-3-yl)-1,2,4-oxadiazol-5-yl]-3,4-dihydrospiro[1-benzopyran-2,1′-cyclopentane]-4-one] | – | <6.5 | – | >5
CCC1(CC)CC(=O)c2cc(-c3nnc(-c4ccccc4OC)o3)ccc2O1 [Compound 300, 2,2-diethyl-6-(5-(2-methoxyphenyl)-1,3,4-oxadiazol-2-yl)chroman-4-one] | – | <6.5 | – | <5
CCC1(CC)CC(=O)c2cc(-c3nc(-c4ccc(OC)nc4)no3)ccc2O1 [Compound 301, 2,2-diethyl-6-[3-(6-methoxy-3-pyridyl)-1,2,4-oxadiazol-5-yl]chroman-4-one] | < 75 | <6.5 | < 75 | <5
N#Cc1cc(-c2nc(-c3ccc4c(c3)CCC(=O)N4)no2)ccc1NCC1CC1 [Compound 302, 2-((cyclopropylmethyl)amino)-5-(3-(2-oxo-1,2,3,4-tetrahydroquinolin-6-yl)-1,2,4-oxadiazol-5-yl)benzonitrile] | > 75 | >6.5 | > 75 | >5
CCC1(CC)CC(=O)c2cc(-c3nc(-c4cnccc4OC)no3)ccc2O1 [Compound 303, 2,2-diethyl-6-(3-(4-methoxypyridin-3-yl)-1,2,4-oxadiazol-5-yl)chroman-4-one] | > 75 | <6.5 | > 75 | <5
CCC1(CC)CC(=O)c2cc(-c3nc(-c4cccnc4)ns3)ccc2O1 [Compound 309, 2,2-diethyl-6-(3-(pyridin-3-yl)-1,2,4-thiadiazol-5-yl)chroman-4-one] | > 75 | <6.5 | > 75 | <5
CCC1(CC)CC(=O)c2cc(-c3nc(-c4cncc(O)c4)no3)ccc2O1 [Compound 310, 2,2-diethyl-6-[3-(5-hydroxy-3-pyridyl)-1,2,4-oxadiazol-5-yl]chroman-4-one] | > 75 | >6.5 | > 75 | >5
CCC1(CC)CC(=O)c2cc(-c3nc(-c4cncc(OC)c4)no3)ccc2O1 [Compound 311, 2,2-diethyl-6-(3-(5-methoxypyridin-3-yl)-1,2,4-oxadiazol-5-yl)chroman-4-one] | – | <6.5 | – | <5
CCC1(CC)CC(=O)c2cc(-c3nc(-c4ccncc4O)no3)ccc2O1 [Compound 312, 2,2-diethyl-6-(3-(3-hydroxypyridin-4-yl)-1,2,4-oxadiazol-5-yl)chroman-4-one] | > 75 | <6.5 | > 75 | <5
